Measured values taken from ChEMBL document CHEMBL1128938, “Evaluation of furofuran as a P2 ligand for symmetry-based HIV protease inhibitors” (Bioorg Med Chem Lett, 1996).

tested on: MT4; assay: Tested for its anti-HIV activity in MT-4 cells in the presence of 50% human serum.; format: functional, cell-based; settings: not given

SMILES | EC50
O=C(N[C@@H](Cc1ccccc1)C[C@H](O)[C@H](Cc1ccccc1)NC(=O)O[C@@H]1COC2OCCC21)O[C@H]1COC2OCCC21 (stereo partly drawn) | 197 nM
O=C(N[C@@H](Cc1ccccc1)[C@@H](O)C[C@H](Cc1ccccc1)NC(=O)OC1COC2OCCC12)Oc1cncs1 (stereo partly drawn) | 774 nM
CC(C)c1nc(CN(C)C(=O)N[C@H](C(=O)N[C@@H](Cc2ccccc2)C[C@H](O)[C@H](Cc2ccccc2)NC(=O)OCc2cncs2)C(C)C)cs1 [RITONAVIR] | 810 nM
O=C(N[C@@H](Cc1ccccc1)[C@@H](O)C[C@H](Cc1ccccc1)NC(=O)O[C@@H]1COC2OCCC21)O[C@H]1COC2OCCC21 (stereo partly drawn) | 1920 nM
O=C(N[C@@H](Cc1ccccc1)C[C@H](O)[C@H](Cc1ccccc1)NC(=O)O[C@@H]1COC2OCCC21)O[C@@H]1COC2OCCC21 (stereo partly drawn) | 4180 nM
CC(C)(C)OC(=O)N[C@@H](Cc1ccccc1)C[C@H](O)[C@H](Cc1ccccc1)NC(=O)O[C@@H]1COC2OCCC21 (stereo partly drawn) | 4730 nM
O=C(N[C@@H](Cc1ccccc1)C[C@H](O)[C@H](Cc1ccccc1)NC(=O)O[C@H]1COC2OCCC21)Oc1cncs1 (stereo partly drawn) | 290 nM
O=C(N[C@@H](Cc1ccccc1)C[C@H](O)[C@H](Cc1ccccc1)NC(=O)O[C@H]1COC2OCCC21)O[C@H]1COC2OCCC21 (stereo partly drawn) | 115 nM
CC(C)(C)OC(=O)N[C@@H](Cc1ccccc1)C[C@H](O)[C@H](Cc1ccccc1)NC(=O)OC1COC2OCCC12 (stereo partly drawn) | 200 nM
O=C(N[C@@H](Cc1ccccc1)C[C@H](O)[C@H](Cc1ccccc1)NC(=O)OC1COC2OCCC12)OC1COC2OCCC12 (stereo partly drawn) | 77 nM
O=C(N[C@@H](Cc1ccccc1)C[C@H](O)[C@H](Cc1ccccc1)NC(=O)OC1COC2OCCC12)Oc1cncs1 (stereo partly drawn) | 1200 nM

tested on: not listed separately; assay: AUC value after oral dose at a dose of 10 mg/kg in rats.; format: ADME, organism-based; design: dose 10 mg/kg, route oral; settings: rat, plasma

AUC | SMILES
1890 ng·h/mL | O=C(N[C@@H](Cc1ccccc1)C[C@H](O)[C@H](Cc1ccccc1)NC(=O)O[C@H]1COC2OCCC21)Oc1cncs1 (stereo partly drawn)

target: Human immunodeficiency virus type 1 protease (Human immunodeficiency virus 1) (UniProt Q72874); assay: Tested for its inhibition against HIV protease at a concentration of 0.5 nM.; settings: not given

inhibition | SMILES
63% | CC(C)(C)OC(=O)N[C@@H](Cc1ccccc1)C[C@H](O)[C@H](Cc1ccccc1)NC(=O)O[C@H]1COC2OCCC21 (stereo partly drawn)
45% | CC(C)(C)OC(=O)N[C@@H](Cc1ccccc1)C[C@H](O)[C@H](Cc1ccccc1)NC(=O)O[C@@H]1COC2OCCC21 (stereo partly drawn)
53% | O=C(N[C@@H](Cc1ccccc1)C[C@H](O)[C@H](Cc1ccccc1)NC(=O)O[C@H]1COC2OCCC21)Oc1cncs1 (stereo partly drawn)
49% | CC(C)(C)OC(=O)N[C@@H](Cc1ccccc1)C[C@H](O)[C@H](Cc1ccccc1)NC(=O)OC1COC2OCCC12 (stereo partly drawn)
43% | O=C(N[C@@H](Cc1ccccc1)C[C@H](O)[C@H](Cc1ccccc1)NC(=O)OC1COC2OCCC12)Oc1cncs1 (stereo partly drawn)

The next lines start with the molecule.

SMILES | inhibition
O=C(N[C@@H](Cc1ccccc1)C[C@H](O)[C@H](Cc1ccccc1)NC(=O)O[C@@H]1COC2OCCC21)O[C@H]1COC2OCCC21 (stereo partly drawn) | 73%
O=C(N[C@@H](Cc1ccccc1)[C@@H](O)C[C@H](Cc1ccccc1)NC(=O)OC1COC2OCCC12)Oc1cncs1 (stereo partly drawn) | 52%
CC(C)c1nc(CN(C)C(=O)N[C@H](C(=O)N[C@@H](Cc2ccccc2)C[C@H](O)[C@H](Cc2ccccc2)NC(=O)OCc2cncs2)C(C)C)cs1 [RITONAVIR] | 78%
O=C(N[C@@H](Cc1ccccc1)[C@@H](O)C[C@H](Cc1ccccc1)NC(=O)O[C@@H]1COC2OCCC21)O[C@H]1COC2OCCC21 (stereo partly drawn) | 39%
O=C(N[C@@H](Cc1ccccc1)C[C@H](O)[C@H](Cc1ccccc1)NC(=O)O[C@H]1COC2OCCC21)O[C@H]1COC2OCCC21 (stereo partly drawn) | 64%
O=C(N[C@@H](Cc1ccccc1)C[C@H](O)[C@H](Cc1ccccc1)NC(=O)OC1COC2OCCC12)OC1COC2OCCC12 (stereo partly drawn) | 53%

tested on: not listed separately; assay: Oral bioavailability in rat (dose 10 mg/kg p.o.); format: ADME, organism-based; settings: in vivo

bioavailability | SMILES
41.1% | O=C(N[C@@H](Cc1ccccc1)C[C@H](O)[C@H](Cc1ccccc1)NC(=O)O[C@H]1COC2OCCC21)Oc1cncs1 (stereo partly drawn)

tested on: not listed separately; assay: AUC value after IV dose at a dose of 5 mg/kg in rats.; format: ADME, organism-based; design: dose 5 mg/kg, route intravenous; settings: rat, plasma

AUC | SMILES
2300 ng·h/mL | O=C(N[C@@H](Cc1ccccc1)C[C@H](O)[C@H](Cc1ccccc1)NC(=O)O[C@H]1COC2OCCC21)Oc1cncs1 (stereo partly drawn)

tested on: not listed separately; assay: Half-life value after IV dose at a dose of 5 mg/kg in rats.; format: ADME, organism-based; design: dose 5 mg/kg, route intravenous; settings: rat, in vivo

half-life | SMILES
41.4 min | O=C(N[C@@H](Cc1ccccc1)C[C@H](O)[C@H](Cc1ccccc1)NC(=O)O[C@H]1COC2OCCC21)Oc1cncs1 (stereo partly drawn)

tested on: not listed separately; assay: Tmax value after oral dose at a dose of 10 mg/kg in rats.; format: ADME, organism-based; design: dose 10 mg/kg, route oral; settings: rat, in vivo

Tmax | SMILES
30 min | O=C(N[C@@H](Cc1ccccc1)C[C@H](O)[C@H](Cc1ccccc1)NC(=O)O[C@H]1COC2OCCC21)Oc1cncs1 (stereo partly drawn)

tested on: not listed separately; assay: Cmax value after oral dose at a dose of 10 mg/kg in rats.; format: ADME, organism-based; design: dose 10 mg/kg, route oral; settings: rat, in vivo

Cmax | SMILES
1120 ng/mL | O=C(N[C@@H](Cc1ccccc1)C[C@H](O)[C@H](Cc1ccccc1)NC(=O)O[C@H]1COC2OCCC21)Oc1cncs1 (stereo partly drawn)

tested on: MT4; assay: Tested for its anti-HIV activity in MT-4 cells.; format: functional, cell-based; settings: Homo sapiens

SMILES | EC50
O=C(N[C@@H](Cc1ccccc1)C[C@H](O)[C@H](Cc1ccccc1)NC(=O)O[C@@H]1COC2OCCC21)O[C@H]1COC2OCCC21 (stereo partly drawn) | 107 nM
O=C(N[C@@H](Cc1ccccc1)[C@@H](O)C[C@H](Cc1ccccc1)NC(=O)OC1COC2OCCC12)Oc1cncs1 (stereo partly drawn) | 428 nM
CC(C)(C)OC(=O)N[C@@H](Cc1ccccc1)C[C@H](O)[C@H](Cc1ccccc1)NC(=O)O[C@H]1COC2OCCC21 (stereo partly drawn) | 180 nM
CC(C)c1nc(CN(C)C(=O)N[C@H](C(=O)N[C@@H](Cc2ccccc2)C[C@H](O)[C@H](Cc2ccccc2)NC(=O)OCc2cncs2)C(C)C)cs1 [RITONAVIR] | 70 nM
O=C(N[C@@H](Cc1ccccc1)[C@@H](O)C[C@H](Cc1ccccc1)NC(=O)O[C@@H]1COC2OCCC21)O[C@H]1COC2OCCC21 (stereo partly drawn) | 891 nM
O=C(N[C@@H](Cc1ccccc1)C[C@H](O)[C@H](Cc1ccccc1)NC(=O)O[C@@H]1COC2OCCC21)O[C@@H]1COC2OCCC21 (stereo partly drawn) | 3680 nM
CC(C)(C)OC(=O)N[C@@H](Cc1ccccc1)C[C@H](O)[C@H](Cc1ccccc1)NC(=O)O[C@@H]1COC2OCCC21 (stereo partly drawn) | 1040 nM
O=C(N[C@@H](Cc1ccccc1)C[C@H](O)[C@H](Cc1ccccc1)NC(=O)O[C@H]1COC2OCCC21)Oc1cncs1 (stereo partly drawn) | 140 nM
O=C(N[C@@H](Cc1ccccc1)C[C@H](O)[C@H](Cc1ccccc1)NC(=O)O[C@H]1COC2OCCC21)O[C@H]1COC2OCCC21 (stereo partly drawn) | 34 nM
CC(C)(C)OC(=O)N[C@@H](Cc1ccccc1)C[C@H](O)[C@H](Cc1ccccc1)NC(=O)OC1COC2OCCC12 (stereo partly drawn) | 200 nM
O=C(N[C@@H](Cc1ccccc1)C[C@H](O)[C@H](Cc1ccccc1)NC(=O)OC1COC2OCCC12)OC1COC2OCCC12 (stereo partly drawn) | 71 nM
O=C(N[C@@H](Cc1ccccc1)C[C@H](O)[C@H](Cc1ccccc1)NC(=O)OC1COC2OCCC12)Oc1cncs1 (stereo partly drawn) | 502 nM

target: Human immunodeficiency virus type 1 protease (Human immunodeficiency virus 1) (UniProt Q72874); assay: Compound was tested for its inhibition against HIV protease at a concentration of 4 nM.; settings: not given

inhibition | SMILES
50% | O=C(N[C@@H](Cc1ccccc1)C[C@H](O)[C@H](Cc1ccccc1)NC(=O)O[C@@H]1COC2OCCC21)O[C@@H]1COC2OCCC21 (stereo partly drawn)

tested on: MT4; assay: Cytotoxicity in MT-4 cells using cytopathicity assay.; format: functional, Homo sapiens; settings: not given

SMILES | CCIC50
O=C(N[C@@H](Cc1ccccc1)C[C@H](O)[C@H](Cc1ccccc1)NC(=O)O[C@@H]1COC2OCCC21)O[C@H]1COC2OCCC21 (stereo partly drawn) | >100 µM
O=C(N[C@@H](Cc1ccccc1)[C@@H](O)C[C@H](Cc1ccccc1)NC(=O)OC1COC2OCCC12)Oc1cncs1 (stereo partly drawn) | >100 µM
CC(C)(C)OC(=O)N[C@@H](Cc1ccccc1)C[C@H](O)[C@H](Cc1ccccc1)NC(=O)O[C@H]1COC2OCCC21 (stereo partly drawn) | 69 µM
CC(C)c1nc(CN(C)C(=O)N[C@H](C(=O)N[C@@H](Cc2ccccc2)C[C@H](O)[C@H](Cc2ccccc2)NC(=O)OCc2cncs2)C(C)C)cs1 [RITONAVIR] | 56 µM
O=C(N[C@@H](Cc1ccccc1)[C@@H](O)C[C@H](Cc1ccccc1)NC(=O)O[C@@H]1COC2OCCC21)O[C@H]1COC2OCCC21 (stereo partly drawn) | >100 µM
O=C(N[C@@H](Cc1ccccc1)C[C@H](O)[C@H](Cc1ccccc1)NC(=O)O[C@@H]1COC2OCCC21)O[C@@H]1COC2OCCC21 (stereo partly drawn) | >100 µM
CC(C)(C)OC(=O)N[C@@H](Cc1ccccc1)C[C@H](O)[C@H](Cc1ccccc1)NC(=O)O[C@@H]1COC2OCCC21 (stereo partly drawn) | >100 µM
O=C(N[C@@H](Cc1ccccc1)C[C@H](O)[C@H](Cc1ccccc1)NC(=O)O[C@H]1COC2OCCC21)Oc1cncs1 (stereo partly drawn) | >100 µM
O=C(N[C@@H](Cc1ccccc1)C[C@H](O)[C@H](Cc1ccccc1)NC(=O)O[C@H]1COC2OCCC21)O[C@H]1COC2OCCC21 (stereo partly drawn) | >100 µM
CC(C)(C)OC(=O)N[C@@H](Cc1ccccc1)C[C@H](O)[C@H](Cc1ccccc1)NC(=O)OC1COC2OCCC12 (stereo partly drawn) | 56 µM
O=C(N[C@@H](Cc1ccccc1)C[C@H](O)[C@H](Cc1ccccc1)NC(=O)OC1COC2OCCC12)OC1COC2OCCC12 (stereo partly drawn) | >100 µM
O=C(N[C@@H](Cc1ccccc1)C[C@H](O)[C@H](Cc1ccccc1)NC(=O)OC1COC2OCCC12)Oc1cncs1 (stereo partly drawn) | >100 µM
